Here are results for one compound from patent US11634394B2, “Process for preparation of fungicidally active triazole compounds” (UPL LTD, priority 2018, dated 2023).

Molecules are shown by their SMILES.

A short description of this data set: Particle size measurement by Malvern Particle Size Analyzer (Mastersizer-Hydro 2000 S M). Type of data set: physicochemical. The following applies: 1 g in 100 ml dispersant medium; prothioconazole prepared according to Example 3. Here is the method:
Particle Size Measurement by Malvern Particle Size Analyzer
Sample preparation and method of analysis: 1 g of Prothioconazole was taken in 100 ml dispersant medium. The content was mixed well and analyzed in Malvern Mastersizer-Hydro 2000 S M.

Consider `OC(Cc1ccccc1Cl)(Cn1ncnc1S)C1(Cl)CC1` (centres unmarked) [Prothioconazole, 2-(1-chloro-cyclopropyl)-1-(2-chlorophenyl)-3-(5-mercapto-1,2,4-triazol-1-yl)-propan-2-ol], for which the “d (0.5) particle size (volume distribution)” value turned out to be 202.967 um and the “d (0.9) particle size (volume distribution)” value was 367.723 um.
